Assay results published in paper PMC4769088, “Antifungal Activity and Action Mechanism of Histatin 5-Halocidin Hybrid Peptides against Candida ssp” (PLoS ONE, 2016).
Where a SMILES comes first, the peptide text is derived from it. Bridges are numbered along the chain shown (N, C = ends). Roman numbers before positions name the chains, in order. Where no end group is shown, it is not given here.

Legend:
[1] = system: laminarin (β-1,3-glucan polymer), C. albicans cell wall component; assay: Binding/radial diffusion assay with laminarin; format: cell-based; conditions: peptide final 180 μg/ml, pre-incubated 2 h at 37°C, radial diffusion assay
Procedure: The candidacidal activities of the peptides were tested by using standard microdilution plate assays, radial diffusion assays and broth dilution assay slightly modified from the procedure recommended by the National Committee for Clinical Laboratory Standards. For the candidacidal assays, C. albicans cells were grown in YPD medium and washed twice with 10 mM sodium phosphate buffer (NaPB; Na2HPO4, NaH2PO4, pH 7.4). The cells (1 x 10^6) were then mixed with different concentrations of peptides and incubated at 30°C with constant shaking for 60 min. For energy depletion experiments, cells were pre-incubated with 10 mM NaPB containing 5 mM NaN3 at 30°C for 60 min before the addition of peptides. The cell suspensions were diluted in 10 mM NaPB and aliquots of 500 cells were spread onto YPD agar plates then incubated for 24 h at 30°C to visualize the surviving colonies. Cell survival was expressed as a percentage of that for the control, and the loss of viability was calculated as [1 x (number of colonies from peptide-treated cells/number of colonies from control cells)] x 100. Candidacidal assays were performed in triplicate. For the radial diffusion assay, C. albicans cells were grown in YPD medium overnight and washed twice with 10 mM NaPB. Washed yeast-phase C. albicans cells (1 x 10^6 CFU) were trapped in thin underlay gels containing 9 mM sodium phosphate, 1 mM sodium citrate buffer, 1% (wt/vol) agarose (A6013; Sigma), and 0.3 mg of Sabouraud dextrose broth (Difco)/ml. After incubation at 37°C for 3 h, a 10 ml overlay gel of 1% agarose and 6% Sabouraud dextrose broth was poured on the underlay gel and then the plates were incubated overnight at 37°C. The clear-zone diameters were measured to the nearest 0.1 mm and graphed against the peptide concentration. Zone diameters were expressed in units (0.1 mm = 1 unit). For the broth dilution assay, the Candida strains were cultured in LYM broth for 18 h at 30°C. The numbers of yeasts were counted using a hemocytometer. Stock peptide solutions were prepared to a concentration of 320 μg/ml in distilled water, and were then serially diluted twofold, to 5 μg/ml. 100 μl aliquots of the diluted culture media containing candida cells (1 x 10^3) were dispensed into the wells of 96-well polypropylene microtiter plates (Costar 3879, Corning, NY), to which peptide solution (11 μl) was then added. […] The antifungal activities were evaluated after 24 h of incubation at 30°C by the observation of visible turbidity the wells. The MIC values were expressed as intervals (a–b), with a representing the highest tested concentration at which microbes continue to grow, and b representing the lowest concentration at which growth inhibition could be detected.
Binding of hybrid peptides to the surface of C. albicans cells was examined by assessing the inhibitory effect of fungal cell wall components on the antimicrobial activity of the hybrid peptides. 20 μl of a pre-determined concentration of the peptides was added to 80 μl of each polysaccharide (0.07–40 mg/ml in 10 mM NaPB) including laminarin (β-1,3-glucan polymer; Sigma), pustulan (β-1,6-glucan polymer; Calbiochem) or mannan (mannose polymer; Sigma) and incubated for 2 h at 37°C. The inhibitory effects of the polysaccharides on the antimicrobial activity of the peptides were assessed by radial diffusion assay as described above. […]

[2] = CD spectra, secondary structure analysis; format: physicochemical; conditions: solvent Laminarin (20 mg/ml in buffer), 200 μg/ml peptide

C[C@H](NC(=O)[C@H](Cc1c[nH]cn1)NC(=O)[C@H](CO)NC(=O)[C@@H](N)CC(=O)O)C(=O)N[C@@H](CCCCN)C(=O)N[C@@H](CCCNC(=N)N)C(=O)N[C@@H](Cc1c[nH]cn1)C(=O)N[C@@H](Cc1c[nH]cn1)C(=O)NCC(=O)N[C@@H](Cc1ccc(O)cc1)C(=O)N[C@@H](CCCCN)C(=O)N[C@@H](CCCNC(=N)N)C(=O)N[C@@H](CCCCN)C(=O)N[C@@H](Cc1ccccc1)C(=O)N[C@@H](Cc1c[nH]cn1)C(=O)N[C@@H](CCC(=O)O)C(=O)N[C@@H](CCCCN)C(=O)N[C@@H](Cc1c[nH]cn1)C(=O)N[C@@H](Cc1c[nH]cn1)C(=O)N[C@@H](CO)C(=O)N[C@@H](Cc1c[nH]cn1)C(=O)N[C@@H](CCCNC(=N)N)C(=O)NCC(=O)N[C@@H](Cc1ccc(O)cc1)C(=O)O [Hst 5, Histatin 5]
laminarin concentration at which antimicrobial activity was drastically decreased by pre-incubation [1]: 2.5 mg/mL | Secondary structure (%) Beta [2]: 21.7% | Secondary structure (%) Helix [2]: 0.0% | Secondary structure (%) Random [2]: 62% | Secondary structure (%) Turn [2]: 16.3%

CC(C)C[C@H](NC(=O)CNC(=O)[C@H](Cc1c[nH]cn1)NC(=O)[C@H](Cc1c[nH]cn1)NC(=O)[C@H](CC(C)C)NC(=O)[C@H](CC(C)C)NC(=O)[C@H](C)NC(=O)[C@H](CC(N)=O)NC(=O)[C@H](CC(C)C)NC(=O)[C@@H](N)Cc1c[nH]c2ccccc12)C(=O)N[C@@H](CC(N)=O)C(=O)N[C@@H](CSSC[C@H](NC(=O)[C@H](CC(N)=O)NC(=O)[C@H](CC(C)C)NC(=O)CNC(=O)[C@H](Cc1c[nH]cn1)NC(=O)[C@H](Cc1c[nH]cn1)NC(=O)[C@H](CC(C)C)NC(=O)[C@H](CC(C)C)NC(=O)[C@H](C)NC(=O)[C@H](CC(N)=O)NC(=O)[C@H](CC(C)C)NC(=O)[C@@H](N)Cc1c[nH]c2ccccc12)C(=O)N[C@@H](C)C(=O)N[C@@H](CCCCN)C(=O)NCC(=O)N[C@H](C(=O)N[C@@H](CC(C)C)C(=O)N[C@@H](C)C(N)=O)C(C)C)C(=O)N[C@@H](C)C(=O)N[C@@H](CCCCN)C(=O)NCC(=O)N[C@H](C(=O)N[C@@H](CC(C)C)C(=O)N[C@@H](C)C(N)=O)C(C)C [di-18Hc, reference compound] (I: H-WLNALLHHGLNCAKGVLA-NH2 / II: H-WLNALLHHGLNCAKGVLA-NH2; disulfide I:12-II:12 (inferred); N-terminus assumed)
laminarin concentration at which antimicrobial activity was drastically decreased by pre-incubation [1]: 0.3 mg/mL | Secondary structure (%) Beta [2]: 29.7% | Secondary structure (%) Helix [2]: 29.2% | Secondary structure (%) Random [2]: 30.3% | Secondary structure (%) Turn [2]: 10.8%

CC(C)C[C@H](NC(=O)CNC(=O)[C@H](Cc1c[nH]cn1)NC(=O)[C@H](Cc1c[nH]cn1)NC(=O)[C@H](CCCNC(=N)N)NC(=O)[C@H](CCCCN)NC(=O)[C@H](C)N)C(=O)N[C@@H](CC(N)=O)C(=O)N[C@@H](CSSC[C@H](NC(=O)[C@H](CC(N)=O)NC(=O)[C@H](CC(C)C)NC(=O)CNC(=O)[C@H](Cc1c[nH]cn1)NC(=O)[C@H](Cc1c[nH]cn1)NC(=O)[C@H](CCCNC(=N)N)NC(=O)[C@H](CCCCN)NC(=O)[C@H](C)N)C(=O)N[C@@H](C)C(=O)N[C@@H](CCCCN)C(=O)N[C@@H](Cc1ccccc1)C(=O)N[C@@H](Cc1c[nH]cn1)C(N)=O)C(=O)N[C@@H](C)C(=O)N[C@@H](CCCCN)C(=O)N[C@@H](Cc1ccccc1)C(=O)N[C@@H](Cc1c[nH]cn1)C(N)=O [di-PH2] (I: H-AKRHHGLNCAKFH-NH2 / II: H-AKRHHGLNCAKFH-NH2; disulfide I:9-II:9 (inferred); N-terminus assumed)
laminarin concentration at which antimicrobial activity was drastically decreased by pre-incubation [1]: 5 mg/mL | Secondary structure (%) Beta [2]: 0.0% | Secondary structure (%) Helix [2]: 20.5% | Secondary structure (%) Random [2]: 61.1% | Secondary structure (%) Turn [2]: 18.4%

CC(C)C[C@H](NC(=O)[C@@H](N)Cc1c[nH]c2ccccc12)C(=O)N[C@@H](CC(N)=O)C(=O)N[C@@H](C)C(=O)N[C@@H](CCCCN)C(=O)N[C@@H](CCCNC(=N)N)C(=O)N[C@@H](Cc1c[nH]cn1)C(=O)N[C@@H](Cc1c[nH]cn1)C(=O)NCC(=O)N[C@@H](Cc1ccc(O)cc1)C(=O)N[C@@H](CCCCN)C(=O)N[C@@H](CSSC[C@H](NC(=O)[C@H](CCCCN)NC(=O)[C@H](Cc1ccc(O)cc1)NC(=O)CNC(=O)[C@H](Cc1c[nH]cn1)NC(=O)[C@H](Cc1c[nH]cn1)NC(=O)[C@H](CCCNC(=N)N)NC(=O)[C@H](CCCCN)NC(=O)[C@H](C)NC(=O)[C@H](CC(N)=O)NC(=O)[C@H](CC(C)C)NC(=O)[C@@H](N)Cc1c[nH]c2ccccc12)C(=O)N[C@@H](CCCCN)C(=O)N[C@@H](Cc1ccccc1)C(=O)N[C@@H](Cc1c[nH]cn1)C(N)=O)C(=O)N[C@@H](CCCCN)C(=O)N[C@@H](Cc1ccccc1)C(=O)N[C@@H](Cc1c[nH]cn1)C(N)=O [di-WP2] (I: H-WLNAKRHHGYKCKFH-NH2 / II: H-WLNAKRHHGYKCKFH-NH2; disulfide I:12-II:12 (inferred); N-terminus assumed)
laminarin concentration at which antimicrobial activity was drastically decreased by pre-incubation [1]: 1.25 mg/mL | Secondary structure (%) Beta [2]: 24.5% | Secondary structure (%) Helix [2]: 0.0% | Secondary structure (%) Random [2]: 54.7% | Secondary structure (%) Turn [2]: 20.8%

AKRHHGYKRKFH-NH2 [P113]
laminarin concentration at which antimicrobial activity was drastically decreased by pre-incubation [1]: 5 mg/mL | Secondary structure (%) Beta [2]: 0.2% | Secondary structure (%) Helix [2]: 2.8% | Secondary structure (%) Random [2]: 72.2% | Secondary structure (%) Turn [2]: 24.7%
